Paper PMC3076311 (Nature structural & molecular biology, 2011)

Molecular target: TcdB CPD E753R R745E (Clostridioides difficile, UniProt P18177, E753R/R745E)
Type: biochemical, Clostridium difficile

inositol hexakisphosphate [InsP6]
factor by which activity is decreased relative to wildtype TcdB CPD: 23
